Test results published in patent US20220233556A1, “COMPOSITIONS AND METHODS FOR TREATING OPHTHALMIC CONDITIONS” (Medicon Pharmaceuticals, Inc., priority 2017, published 2022).
Read-outs that look alike come from different tables or passages of the source.

Legend:
[1] = Safety of topically applied PS in rabbits (slit lamp, intraocular pressure, necropsy); assay type: in vivo
Description: The Safety of Topically Applied PS.

JNK and Erk1/2 = assay: MAPK activation by phosphorylation (immunoblots) in human conjunctival cells; assay type: cell-based; conditions: PS 3.5 h
Procedure: FIGS. 6A and 6B illustrate that PS suppresses the activation of NF-κB and MAPKs. In FIG. 6A, NF-κB activation was determined by EMSA in cultured human conjunctival cells stimulated with TNFα (top) and in the ILG of rabbits with Con A-induced DED and treated for one week with either vehicle or PS (bottom). In FIG. 6B, immunoblots detecting the activation of MAPKs by phosphorylation in cultured human conjunctival cells treated with PS at the indicated concentrations for 3.5 h. Loading control: β-actin.
The conjunctiva cells used express only the JNK and Erk1/2 pathways.

[2] = PS levels in ocular tissues after topical gellan gum-based in-situ gel; assay type: in vivo, New Zealand white rabbits; conditions: New Zealand white, rabbit, gellan gum 0.5% in-situ gel, 2.4~3% PS, eye drops
Procedure: Composition: 2.4˜3% PS; 0.5% Gellan gum; 5% Vitamin E TPGS; 10% (2-hydroxypropyl)-β-cyclodextrin. Preparation Method: A Gellan gum solution was prepared by adding a certain amount of gellan gum to deionized water and heating the mixture to 90° C. with fast stirring (500 rpm). Once completely dissolved, the solution was filtered through a 0.22 μm filter. Then, PS and additional excipients were added to the system to achieve the above concentrations and stirred at 50° C. at 500 rpm for 30 minutes to allow complete dissolution.
Results: The above PS formulation was administered topically as eye drops to the eyes of New Zealand white rabbits. The levels of PS in ocular tissues at 2 h later were determined by HPLC.

[3] = Biodistribution of PS in human cadaveric eyes (ex vivo), PS HP-β-CD solution; assay type: in vitro ADME; conditions: human eye ex vivo
Procedure: Human cadaveric eyes were obtained through the Lions Eye Bank for Long Island, Valley Stream, N.Y. They were preserved on ice and used within 2 h from removal from the donors.
In another similar study, the anterior surface of the human eye was brought into direct contact with a PS HP-β-CD solution (PS concentration at 0.5%, 2.0% and 3.3%) and incubated for 10 min at 37° C. The eye was then rinsed with 10% dimethylsulfoxide (DMSO) to remove residual PS from the surface of the eye and incubated in PBS for 60 min. […] At the specified times, ocular tissues were dissected and PS levels determined by HPLC.

[4] = weekly during 1-month application

For `CCOP(=O)(OCC)OCCCCOC(=O)CC1=C(C)/C(=C/c2ccc([S+](C)[O-])cc2)c2ccc(F)cc21` (stereo not shown) [PS, phosphosulindac], the signs of uveitis ([1]; 1-month application) was “No animal developed signs of uveitis”, the Intraocular pressure ([1]; Tonopen, 1-month application) was “remained normal” and the “tolerability of ocular application” value ([1]; rabbits, topical) was “very well tolerated”. The “slit lamp: corneal abnormalities (staining defects, vascularization, opacification, epithelial defects, stromal thinning, melts)” value [1, 4] was “nor were there signs of corneal abnormalities”, the “slit lamp: follicular/papillary response or injection of the conjunctiva” value [1, 4] was “no evidence of follicular/papillary response or injection of the conjunctiva” and the “activation by phosphorylation of JNK and Erk1/2” value (JNK and Erk1/2) was “profoundly suppressed”. It also gave a concentration at 2 h ([2]; aqueous humor, read-out: PS in Aqueous humor) of 1.2 µM, a concentration at 2 h ([2]; conjunctiva, read-out: PS in Conjunctiva) of 24.1 µM and a concentration at 2 h ([2]; cornea, read-out: PS in Cornea) of 72 µM. The “PS in Aqueous” value ([3]; 0.5% PS HP-β-CD solution) was 2.4 µM, the “PS in Lens” value ([3]; 0.5% PS HP-β-CD solution) was 0.6 µM and the “PS in Retina” value ([3]; 0.5% PS HP-β-CD solution) was 2.9 µM. For the same molecule, the “PS in Vitreous” value ([3]; 0.5% PS HP-β-CD solution) was 0.3 µM, the “PS in Lens” value ([3]; 2.0% PS HP-β-CD solution) was 1.4 µM and the “PS in Lens” value ([3]; 3.3% PS HP-β-CD solution) was 1.9 µM. The “PS in Vitreous” value ([3]; 3.3% PS HP-β-CD solution) was 4.3 µM.
